Consider two substances from patent US20250145715A1, “B7-H3 TARGETING FUSION PROTEINS AND METHODS OF USE THEREOF” (GT Biopharma, Inc., priority 2021, published 2025).

Data set [1] concerns ovarian cancer cell lines. Description: NK cell activation against ovarian cancer lines vs K562 / Raji. It counts as cell-based. Here is the method: ADCC was measured in a flow cytometry assay by evaluating degranulation via CD107a (lysosomal-associated membrane protein LAMP-1) and intracellular IFNγ production. Upon thawing, normal donor and patient-derived PBMCs or ascites cells were rested overnight (37° C., 5% CO2) in RPMI 1640 media supplemented with 10% fetal calf serum (RPMI-10). The next morning, they were suspended with tumor-target cells or media after washing twice with RPMI-10. Cells were then incubated with TriKEs or controls for 10 min at 37° C. Fluorescein isothiocyate (FITC)-conjugated anti-human CD107a monoclonal antibody (BD Biosciences, San Jose, CA, USA) was then added. […] Samples were washed and evaluated in an LSRII flow cytometer (BD Biosciences, San Jose, CA, USA).
The ability of cam1615B7-H3 TriKE to mediate NK cell activity against ovarian cancer cells was evaluated. […] In order to determine if the individual components of the TriKE could induce NK cell activity on their own, the individual cam16 VHH, IL-15, or anti-B7-H3 scFv components were incubated with PBMCs and OVCAR8 cells and activity was determined. […] NK cell activity, from normal donor PBMCs and ascites from the peritoneal cavity of ovarian cancer patients at the time of surgery, was assessed against MA-148 cells, another high-grade serous ovarian adenocarcinoma cell line (FIGS. 29A-29B and 30G-30H). […]

Data set [2] deals with PC-3 spheroids. Description: PC-3 spheroid assay. It counts as cell-based, human. The text has this:
FIG. 18 is a graph illustrating the size of PC-3 spheroids over time.
FIG. 19 is a graph illustrating the size of PC-3 spheroids over time.

Take “cam1615B7-H3: second-generation TriKE: humanized camelid anti-CD16 VHH, human wild-type IL-15, anti-B7-H3 mAb 376.96 scFv; SEQ ID NO:1”: in data set [1] (K562 in the absence of TriKE), the “IFNγ production against ovarian cancer vs K562 natural cytotoxicity signal” value is “stronger IFNγ production”. For the same substance, the “fold NK cell activation (PBMC+Tumor+TriKE divided by PBMC+TriKE alone)” value in data set [1] (all ovarian cancer cell lines vs Raji) is recorded as “higher than activation by the B7-H3-negative Raji line”.

For “B7-H3 TriKE: camelid nanobodies targeting CD16 and B7-H3 joined by IL-15 and two linkers; sequence table equates the name with cam1615B7-H3”, the “PC-3 spheroid size over time” value in data set [2] was “reduce PC-3 spheroid size over time”. Moreover, the “killing of PC3 spheroids” value in data set [2] (photographs, FIG. 20) is listed as “efficient killing of PC3 spheroids”.
